# Test results from patent US20260234144A1 (TAY THERAPEUTICS LIMITED, priority 2023, published 2026).
# Tested on: R223X stop codon in the mutated luciferase gene, ADXC8 luciferase reporter cell line
# Assay: cells
# Type: cell-based
# Settings: 24 h, ADXC8 cells, 24 hours; for EC (100% of 200 uM G418 response): read-out: pC100%, negative logarithm of the concentration giving the same response as 200 μM G418; for Emax: read-out: Fold Over Control, maximum fold response relative to 200 μM G418
smiles,measurement,value
CN1CCC(Nc2nc(N)c3ccc(-c4ccncc4)nc3n2)CC1 [Example 111],EC (100% of 200 uM G418 response),10 to 100 µM
CN1CCC(Nc2nc(N)c3ccc(-c4cccc(C#N)c4)nc3n2)CC1 [Example 112],EC (100% of 200 uM G418 response),1 to 10 µM
CN1CCC(Nc2nc(N)c3ccc(-c4ccccc4N)nc3n2)CC1 [Example 113],Emax,100 to 3000%
same,EC (100% of 200 uM G418 response),10 to 100 µM
CN1CCC(Nc2nc(N)c3ccc(-c4cncn4C)nc3n2)CC1 [Example 114],Emax,0 to 100%
same,EC (100% of 200 uM G418 response),> 100 µM
"CN1CCC(Nc2nc(N)c3ccc(-c4ccccc4Cl)nc3n2)CC1 [Example 115, 7-(2-chlorophenyl)-N^2-(1-methylpiperidin-4-yl) pyrido[2,3-d]pyrimidine-2,4-diamine]",Emax,100 to 3000%
same,EC (100% of 200 uM G418 response),1 to 10 µM
CN1CCC(Nc2nc(N)c3ccc(-c4ccccc4S(C)(=O)=O)nc3n2)CC1 [Example 116],Emax,0 to 100%
same,EC (100% of 200 uM G418 response),> 100 µM
CN1CCC(Nc2nc(N)c3ccc(-c4cnccn4)nc3n2)CC1 [Example 117],Emax,0 to 100%
same,EC (100% of 200 uM G418 response),> 100 µM
CN1CCC(Nc2nc(N)c3ccc(-c4ccccc4C#N)nc3n2)CC1 [Example 118],EC (100% of 200 uM G418 response),10 to 100 µM
"CN1CCC(Nc2nc(N)c3ccc(-c4ncco4)nc3n2)CC1 [Example 119, N^2-(1-methylpiperidin-4-yl)-7-(oxazol-2-yl)pyrido[2,3-d]pyrimidine-2,4-diamine]",Emax,100 to 3000%
same,EC (100% of 200 uM G418 response),10 to 100 µM
"Cc1cc(-c2ccccc2)nc2nc(NCCCN3CCOCC3)nc(N)c12 [Example 120, 5-methyl-N2-(3-morpholinopropyl)-7-phenylpyrido[2,3-d]pyrimidine-2,4-diamine]",Emax,100 to 3000%
same,EC (100% of 200 uM G418 response),1 to 10 µM
"Cc1nc2nc(NC3CCN(C)CC3)nc(N)c2c(C)c1C [Example 121, 5,6,7-trimethyl-N2-(1-methylpiperidin-4-yl)pyrido[2,3-d]pyrimidine-2,4-diamine]",Emax,100 to 3000%
same,EC (100% of 200 uM G418 response),1 to 10 µM
"COC(=O)c1cnc2nc(NC3CCN(C)CC3)nc(N)c2c1 [Example 122, methyl 4-amino-2-[(1-methylpiperidin-4-yl)amino]pyrido[2,3-d]pyrimidine-6-carboxylate]",Emax,0 to 100%
same,EC (100% of 200 uM G418 response),> 100 µM
"CN1CCC(Nc2nc(N)c3cc(CO)cnc3n2)CC1 [Example 123, {4-amino-2-[(1-methylpiperidin-4-yl)amino]pyrido[2,3-d]pyrimidin-6-yl}methanol]",Emax,0 to 100%
same,EC (100% of 200 uM G418 response),> 100 µM
"CC(=O)c1cnc2nc(NC3CCN(C)CC3)nc(N)c2c1 [Example 125, 1-{4-amino-2-[(1-methylpiperidin-4-yl)amino]pyrido[2,3-d]pyrimidin-6-yl}ethenone]",Emax,0 to 100%
same,EC (100% of 200 uM G418 response),> 100 µM
"CC(O)c1cnc2nc(NC3CCN(C)CC3)nc(N)c2c1 (stereo not shown) [Example 126, 1-{4-amino-2-[(1-methylpiperidin-4-yl)amino]pyrido[2,3-d]pyrimidin-6-yl}ethanol]",Emax,0 to 100%
same,EC (100% of 200 uM G418 response),> 100 µM
"Nc1nc(NC23CCN(CC2)CC3)nc2nc(-c3ccccc3)c3c(c12)CCC3 [Example 127, 6-phenyl-N^3-(quinuclidin-4-yl)-8,9-dihydro-7H-cyclopenta[4,5]pyrido[2,3-d]pyrimidine-1,3-diamine]",Emax,100 to 3000%
same,EC (100% of 200 uM G418 response),0.1 to 1 µM
"Cc1c(Cl)c(-c2ccccc2)nc2nc(NCCCN3CCOCC3)nc(N)c12 [Example 128, 6-chloro-5-methyl-N2-(3-morpholinopropyl)-7-phenylpyrido[2,3-d]pyrimidine-2,4-diamine]",EC (100% of 200 uM G418 response),1 to 10 µM
"Nc1nc(NCCCN2CCOCC2)nc2nc(-c3ccccc3)c3c(c12)CCC3 [Example 129, N^3-(3-morpholinopropyl)-6-phenyl-8,9-dihydro-7H-cyclopenta[4,5]pyrido[2,3-d]pyrimidine-1,3-diamine]",EC (100% of 200 uM G418 response),1 to 10 µM
"Cc1nc2nc(NC3CCN(C)CC3)nc(N)c2c(C)c1Cl [Example 130, 6-chloro-5,7-dimethyl-N^2-(1-methylpiperidin-4-yl)pyrido[2,3-d]pyrimidine-2,4-diamine]",Emax,100 to 3000%
same,EC (100% of 200 uM G418 response),1 to 10 µM
"Cc1cc(C)c2c(N)nc(NC3CCCN(C(=O)OC(C)(C)C)CC3)nc2n1 (stereo not shown) [Example 131, tert-butyl 4-((4-amino-5,7-dimethylpyrido[2,3-d]pyrimidin-2-yl)amino)azepane-1-carboxylate]",Emax,0 to 100%
same,EC (100% of 200 uM G418 response),> 100 µM
Cc1cc(C)c2c(N)nc(NC3CC4(CCN(C(=O)OC(C)(C)C)CC4)C3)nc2n1 [Example 132],Emax,0 to 100%
same,EC (100% of 200 uM G418 response),> 100 µM
Cc1cc(C)c2c(N)nc(NCC3CCN(C(=O)OC(C)(C)C)CC3)nc2n1 [Example 133],Emax,0 to 100%
same,EC (100% of 200 uM G418 response),> 100 µM
Cc1cc(C)c2c(N)nc(NC3CC4(C3)CN(C(=O)OC(C)(C)C)C4)nc2n1 [Example 134],Emax,0 to 100%
same,EC (100% of 200 uM G418 response),> 100 µM
Cc1cc(C)c2c(N)nc(NC3CCCCN(C(=O)OC(C)(C)C)C3)nc2n1 (stereo not shown) [Example 135],Emax,0 to 100%
same,EC (100% of 200 uM G418 response),> 100 µM
Cc1cc(C)c2c(N)nc(NC[C@@H]3CN(C(=O)OC(C)(C)C)CCO3)nc2n1 [Example 136],Emax,0 to 100%
same,EC (100% of 200 uM G418 response),> 100 µM
Cc1cc(C)c2c(N)nc(NC3CC4CC[C@@H](C3)N4C(=O)OC(C)(C)C)nc2n1 (stereo partly shown) [Example 137],Emax,100 to 3000%
same,EC (100% of 200 uM G418 response),10 to 100 µM
Cc1cc(C)c2c(N)nc(NC[C@H]3CN(C(=O)OC(C)(C)C)CCO3)nc2n1 [Example 138],Emax,0 to 100%
same,EC (100% of 200 uM G418 response),> 100 µM
Cc1cc(C)c2c(N)nc(NCC3CN(C(=O)OC(C)(C)C)C3)nc2n1 [Example 139],Emax,100 to 3000%
same,EC (100% of 200 uM G418 response),10 to 100 µM
"Cc1cc(C)c2c(N)nc(NC3CCCNCC3)nc2n1 (stereo not shown) [Example 140, A2-(azepan-4-yl)-5,7-dimethylpyrido[2,3-d]pyrimidine-2,4-diamine]",Emax,100 to 3000%
same,EC (100% of 200 uM G418 response),1 to 10 µM
"Cc1cc(C)c2c(N)nc(NCC3CCNCC3)nc2n1 [Example 141, 5,7-dimethyl-N^2-(piperidin-4-ylmethyl)pyrido[2,3-d]pyrimidine-2,4-diamine]",Emax,100 to 3000%
same,EC (100% of 200 uM G418 response),10 to 100 µM
"Cc1cc(C)c2c(N)nc(NCCN(C)C)nc2n1 [Example 142, N^2-(2-(dimethylamino)ethyl)-5,7-dimethylpyrido[2,3-d]pyrimidine-2,4-diamine]",EC (100% of 200 uM G418 response),1 to 10 µM
Cc1cc(C)c2c(N)nc(NCCN(C)c3ccccc3)nc2n1 [Example 143],Emax,0 to 100%
same,EC (100% of 200 uM G418 response),> 31.6 µM
Cc1cc(C)c2c(N)nc(NCC3CCCCN3C)nc2n1 (stereo not shown) [Example 144],Emax,100 to 3000%
same,EC (100% of 200 uM G418 response),1 to 10 µM
Cc1cc(C)c2c(N)nc(NC3CCN(CC4CC4)CC3)nc2n1 [Example 145],Emax,100 to 3000%
same,EC (100% of 200 uM G418 response),1 to 10 µM
Cc1cc(C)c2c(N)nc(NC3CCN(C4CC4)CC3)nc2n1 [Example 146],Emax,100 to 3000%
same,EC (100% of 200 uM G418 response),1 to 10 µM
Cc1cc(C)c2c(N)nc(NCCCN(C)c3ccccc3)nc2n1 [Example 147],Emax,0 to 100%
same,EC (100% of 200 uM G418 response),> 31.6 µM
Cc1cc(C)c2c(N)nc(NCC(C)(C)N3CCOCC3)nc2n1 [Example 148],Emax,100 to 3000%
same,EC (100% of 200 uM G418 response),10 to 100 µM
Cc1cc(C)c2c(N)nc(NCC(C)(C)CN(C)C)nc2n1 [Example 149],Emax,0 to 100%
same,EC (100% of 200 uM G418 response),> 31.6 µM
